Laboratory results: US7323447B2, “Hepatitis C virus inhibitors” (Bristol-Myers Squibb Company, priority 2005, dated 2008)

Biological target: T1, HCV NS3/4A protease complex (H77 strain) (Hepatitis C virus genotype 1a, UniProt P27958, C1454S/C1711G)
T1 construct: DNA encoding the recombinant HCV NS3/4A protease complex (amino acids 1027 to 1711) for these strains; inferred from pET21b vector and Ni-NTA purification; made in house; host or cells: Escherichia coli BL21 (DE3), pET21b
Experiment: FRET peptide assay to monitor HCV NS3/4A proteolytic activity, H77 strain
Assay type: biochemical
Text: HCV NS3 protease complexes, derived from the BMS strain, H77 strain or J4L6S strain, were generated, as described below. These purified recombinant proteins were generated for use in a homogeneous assay (see below) to provide an indication of how effective compounds of the present disclosure would be in inhibiting HCV NS3 proteolytic activity.
The H77 and J4L6S strains were used for production of recombinant NS3/4A protease complexes. DNA encoding the recombinant HCV NS3/4A protease complex (amino acids 1027 to 1711) for these strains was manipulated as described by P. Gallinari et al. (see Gallinari P, Paolini C, Brennan D, Nardi C, Steinkuhler C, De Francesco R. Biochemistry. 38(17):5620-32, (1999)). Briefly, a three-lysine solubilizing tail was added at the 3′-end of the NS4A coding region. The cysteine in the P1 position of the NS4A-NS4B cleavage site (amino acid 1711) was changed to a glycine to avoid the proteolytic cleavage of the lysine tag. Furthermore, a cysteine to serine mutation was introduced by PCR at amino acid position 1454 to prevent the autolytic cleavage in the NS3 helicase domain. […]

T1 sequence (P27958 1027-1711 C1454S/C1711G, one chain of several): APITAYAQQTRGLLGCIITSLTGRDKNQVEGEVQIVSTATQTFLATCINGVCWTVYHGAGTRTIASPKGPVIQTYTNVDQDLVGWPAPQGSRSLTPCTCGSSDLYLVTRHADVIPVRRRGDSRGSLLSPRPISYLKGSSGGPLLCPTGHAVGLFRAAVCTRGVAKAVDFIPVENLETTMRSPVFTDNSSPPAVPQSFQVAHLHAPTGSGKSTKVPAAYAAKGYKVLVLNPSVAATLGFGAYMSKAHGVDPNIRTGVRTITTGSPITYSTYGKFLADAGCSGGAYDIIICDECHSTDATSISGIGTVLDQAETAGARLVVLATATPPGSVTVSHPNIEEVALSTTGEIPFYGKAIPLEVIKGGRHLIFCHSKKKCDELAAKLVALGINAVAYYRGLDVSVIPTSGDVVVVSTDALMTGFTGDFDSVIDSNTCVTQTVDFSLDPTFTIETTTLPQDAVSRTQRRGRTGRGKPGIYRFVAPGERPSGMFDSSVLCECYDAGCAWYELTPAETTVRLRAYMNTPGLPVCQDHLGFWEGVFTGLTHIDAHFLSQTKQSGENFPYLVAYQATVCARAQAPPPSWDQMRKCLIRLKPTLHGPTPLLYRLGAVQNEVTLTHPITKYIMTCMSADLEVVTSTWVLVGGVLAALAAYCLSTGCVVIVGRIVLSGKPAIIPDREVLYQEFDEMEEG

With C=C[C@@H]1C[C@]1(NC(=O)[C@@H]1C[C@@H](OC(=O)N2Cc3cccc(F)c3C2)CN1C(=O)[C@@H](OC(=O)NC(C)(C)C)C(C)(C)C)C(=O)NS(=O)(=O)C1CC1 [Example 56Compound 56] the IC50 was 17 nM.
